According to patent US8106055B2, “Substituted amide compounds” (Gruenenthal GmbH, priority 2007, dated 2012):
Read-outs that look alike come from different tables or passages of the source.

Key:
[1] = molecular target: T1, bradykinin 1 receptor (B1R) of the rat (Rattus norvegicus, UniProt P97583); assay: Functional investigation on the rat bradykinin 1 receptor (B1R), Ca2+ FLIPR assay in CHO K1 rB1R cells; assay type: cell-based; details: CHO-K1, B1R antagonism rat, test substance 10 μM, read-out: B1R Ant. r [10 μM] % Inhibition
T1 construct: expressed in transfected cells; host or cells: CHO K1 cells
T1 sequence (P97583 1-337): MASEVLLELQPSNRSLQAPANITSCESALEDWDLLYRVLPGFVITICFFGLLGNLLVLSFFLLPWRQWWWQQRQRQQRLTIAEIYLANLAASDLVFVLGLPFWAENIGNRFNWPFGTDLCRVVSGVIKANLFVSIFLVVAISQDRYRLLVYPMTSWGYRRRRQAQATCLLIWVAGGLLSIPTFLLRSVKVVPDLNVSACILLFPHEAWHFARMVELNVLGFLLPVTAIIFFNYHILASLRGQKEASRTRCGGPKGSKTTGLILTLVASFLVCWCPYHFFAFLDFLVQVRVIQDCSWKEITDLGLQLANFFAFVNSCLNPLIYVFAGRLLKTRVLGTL
How it was run: (§1)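 Stably transfected CHO K1 cells loaded with Fluo-4; FLIPR Ca2+ fluorescence peak (ex 488/em 540 nm). Compound added first (agonism vs Lys-Des-Arg9-bradykinin ≥50 nM human, Des-Arg9-bradykinin 10 μM rat), then after 10-20 min agonist at EC80; antagonism as % inhibition, IC50 from concentration series, n=2-3, N≥2.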

human μ opiate receptor = molecular target: T2, human μ opiate receptor (Homo sapiens, UniProt P35372); assay: Affinity for the human μ opiate receptor ([3H]-naloxone displacement, CHO-K1 receptor membrane preparation, SPA); assay type: binding; details: 1.5 h, test concentration 1 μM
T2 construct: purchased PerkinElmer Life Sciences, Zaventem, Belgium RB-HOM; host or cells: CHO-K1 cells (membrane preparation)
Experimental: Binding data of the compounds on the μ opioid receptor and data on the inhibition of reuptake of serotonin (5-HT) are given in Table 1. The data for the μ receptor were measured at a test concentration of 1 μM, and those for the serotonin reuptake at 10 μM. The values are stated in % inhibition.
Investigation of the Activity of the Compounds of the Invention Method for Determining the Affinity for the Human μ Opiate Receptor
The receptor affinity for the human p opiate receptor is determined in a homogeneous set-up in microtitre plates. For this, dilution series of the substances to be tested are incubated with a receptor membrane preparation (15-40 μg of protein/250 μl of incubation batch) of CHO-K1 cells which express the human p opiate receptor (RB-HOM receptor membrane preparation from PerkinElmer Life Sciences, Zaventem, Belgium) in the presence of 1 nmol/l of the radioactive ligand [^3H]-naloxone (NET719, PerkinElmer Life Sciences, Zaventem, Belgium) and 1 mg of WGA-SPA-Beads (wheat germ agglutinin SPA beads from Amersham/Pharmacia, Freiburg, Germany) in a total volume of 250 μl for 90 minutes at room temperature. 50 mmol/l of Tris-HCl supplemented with 0.06% of bovine serum albumin is used as the incubation buffer. 100 μmol/l of naloxone are additionally added for determination of the non-specific binding. After the end of the ninety-minute incubation time, the microtitre plates are centrifuged for 20 minutes at 1,000 g and the radioactivity is measured in a β-counter (Microbeta-Trilux, PerkinElmer Wallac, Freiburg, Germany). The percentage displacement of the radioactive ligand from its binding to the human p opiate receptor is determined at a concentration of the test substances of 1 μmol/l and stated as the percentage inhibition of the specific binding. Starting from the percentage displacement by various concentrations of the test substances, IC50 inhibitory concentrations which cause a 50 percent displacement of the radioactive ligand are calculated. By conversion by means of the Cheng-Prusoff relationship, Ki values for the test substances are obtained.

[2] = molecular target: T3, human bradykinin 1 receptor (B1R) (Homo sapiens, UniProt P46663); assay: Functional investigation on the human bradykinin 1 receptor (B1R), Ca2+ FLIPR assay in CHO K1 hB1R cells; assay type: cell-based; details: CHO-K1, B1R antagonism human, test substance 10 μM, read-out: B1R Ant. h [10 μM] % Inhibition
T3 construct: expressed in transfected cells; host or cells: CHO K1 cells
T3 sequence (P46663 1-353): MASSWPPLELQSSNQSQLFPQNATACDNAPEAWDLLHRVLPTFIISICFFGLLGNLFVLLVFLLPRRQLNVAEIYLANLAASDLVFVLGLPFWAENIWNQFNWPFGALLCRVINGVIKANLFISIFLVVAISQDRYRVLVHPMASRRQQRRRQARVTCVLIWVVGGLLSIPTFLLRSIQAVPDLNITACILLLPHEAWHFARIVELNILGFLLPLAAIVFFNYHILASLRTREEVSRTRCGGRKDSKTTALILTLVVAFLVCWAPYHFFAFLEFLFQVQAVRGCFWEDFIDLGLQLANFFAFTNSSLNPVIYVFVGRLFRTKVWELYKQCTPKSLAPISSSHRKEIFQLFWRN
How it was run: as §1

[3] = % inhibition compared with the maximum achievable inhibition
[4] = Table 3, to be read in the same way as Table 1, read-out: μ

T2 sequence (P35372 whole entry): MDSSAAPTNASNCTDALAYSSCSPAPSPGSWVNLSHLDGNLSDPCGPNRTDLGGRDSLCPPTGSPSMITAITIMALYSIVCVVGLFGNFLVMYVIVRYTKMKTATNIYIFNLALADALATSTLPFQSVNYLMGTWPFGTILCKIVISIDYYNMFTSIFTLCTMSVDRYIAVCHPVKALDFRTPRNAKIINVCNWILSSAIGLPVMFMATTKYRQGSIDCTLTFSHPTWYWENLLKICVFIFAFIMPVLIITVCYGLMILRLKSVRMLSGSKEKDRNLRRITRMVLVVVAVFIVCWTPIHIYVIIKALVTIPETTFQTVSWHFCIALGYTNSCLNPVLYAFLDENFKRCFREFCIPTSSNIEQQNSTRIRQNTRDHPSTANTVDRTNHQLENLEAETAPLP

| SMILES | inhibition at 10 µM [1, 3] [%] | inhibition at 1 µM (human μ opiate receptor; [4]) [%] | inhibition at 10 µM [2, 3] [%] | inhibition at 10 µM ([1]; Ca2+ FLIPR, CHO K1 rB1R cells) [%] | inhibition at 10 µM ([2]; Ca2+ FLIPR, CHO K1 hB1R cells) [%] | inhibition at 1 µM (human μ opiate receptor; Table 2, read-out: μ receptor) [%] |
| --- | --- | --- | --- | --- | --- | --- |
| CN1CCN(C(c2cccc(F)c2)C2CCN(C(=O)COCC3CCc4ccccc4N3S(=O)(=O)c3ccc(Cl)c(Cl)c3)CC2)CC1 (stereo not drawn) [Example 809, 2-((1-(3,4-dichlorophenylsulfonyl)-1,2,3,4-tetrahydroquinolin-2-yl)methoxy)-1-(4-((3-fluorophenyl)(4-methylpiperazin-1-yl)methyl)piperidin-1-yl)ethanone] | 87 | 6 | 109 | – | – | – |
| O=C(COC1CCN(S(=O)(=O)c2c(Cl)cc(Cl)cc2Cl)C1)NCC1CCC(C(c2ccccc2)N2CCCC2)CC1 (stereo not drawn) [Example 644, N-((4-(phenyl(pyrrolidin-1-yl)methyl)cyclohexyl)methyl)-2-(1-(2,4,6-trichlorophenylsulfonyl)pyrrolidin-3-yloxy)acetamide] | – | 59 | – | 52 | 73 | – |
| CN(CCOCC(=O)NC1CCC(C(c2ccccc2)N2CCCC2)CC1)S(=O)(=O)c1c(Cl)cccc1Cl (stereo not drawn) [Example 634, 2-(2-(2,6-dichloro-N-methylphenylsulfonamido)ethoxy)-N-(4-(phenyl(pyrrolidin-1-yl)methyl)cyclohexyl)acetamide] | – | 68 | – | 38 | 92 | – |
| COc1cc(C)c(S(=O)(=O)N2CCCCC2COCC(=O)NC2CCC(C(c3ccccc3)N3CCOCC3)CC2)c(C)c1 (stereo not drawn) [Example 699, 2-((1-(4-methoxy-2,6-dimethylphenylsulfonyl)piperidin-2-yl)methoxy)-N-(4-(morpholino(phenyl)methyl)cyclohexyl)acetamide] | – | 15 | – | 104 | 90 | – |
| CN(CCOCC(=O)NC1CCC(C(CCc2ccccc2)N2CCCCC2)CC1)S(=O)(=O)c1c(Cl)cc(C(F)(F)F)cc1Cl (stereo not drawn) [Example 671, 2-(2-(2,6-dichloro-N-methyl-4-(trifluoromethyl)phenylsulfonamido)ethoxy)-N-(4-(3-phenyl-1-(piperidin-1-yl)propyl)cyclohexyl)acetamide] | – | 9 | – | 4 | 43 | – |
| COc1cc(C)c(S(=O)(=O)N2CCCCC2COCC(=O)N2CCC(C(c3ccccc3)N3CCN(C)CC3)CC2)c(C)c1 (stereo not drawn) [Example 807, 2-((1-(4-methoxy-2,6-dimethylphenylsulfonyl)piperidin-2-yl)methoxy)-1-(4-((4-methylpiperazin-1-yl)(phenyl)methyl)piperidin-1-yl)ethanone] | 98 | 11 | 105 | – | – | – |
| COc1cc(C)c(S(=O)(=O)N2CCC(OCC(=O)NCC3CCC(C(CCc4ccccc4)N4CCCC4)CC3)C2)c(C)c1 (stereo not drawn) [Example 726, 2-(1-(4-methoxy-2,6-dimethylphenylsulfonyl)pyrrolidin-3-yloxy)-N-((4-(3-phenyl-1-(pyrrolidin-1-yl)propyl)cyclohexyl)methyl)acetamide] | – | 23 | – | 94 | 103 | – |
| COc1cc(C)c(S(=O)(=O)N2CCCC(OCC(=O)NCC3CCC(C(CCc4ccccc4)N4CCCC4)CC3)C2)c(C)c1 (stereo not drawn) [Example 731, 2-(1-(4-methoxy-2,6-dimethylphenylsulfonyl)piperidin-3-yloxy)-N-((4-(3-phenyl-1-(pyrrolidin-1-yl)propyl)cyclohexyl)methyl)acetamide] | – | 49 | – | 80 | 101 | – |
| COc1cc(C)c(S(=O)(=O)N2CCCC(COCC(=O)NCC3CCC(C(c4ccccc4)N4CCCC4)CC3)C2)c(C)c1 (stereo not drawn) [Example 655, 2-((1-(4-methoxy-2,6-dimethylphenylsulfonyl)piperidin-3-yl)methoxy)-N-((4-(phenyl(pyrrolidin-1-yl)methyl)cyclohexyl)methyl)acetamide] | – | 38 | – | 74 | 71 | – |
| O=C(COC1CCCN(S(=O)(=O)c2c(Cl)cc(Cl)cc2Cl)C1)NCC1CCC(C(CCc2ccccc2)N2CCCC2)CC1 (stereo not drawn) [Example 729, N-((4-(3-phenyl-1-(pyrrolidin-1-yl)propyl)cyclohexyl)methyl)-2-(1-(2,4,6-trichlorophenylsulfonyl)piperidin-3-yloxy)acetamide] | – | 79 | – | 22 | 92 | – |
| CN(CCOCC(=O)NCC1CCC(C(CCc2ccccc2)N2CCOCC2)CC1)S(=O)(=O)c1c(Cl)cc(C(F)(F)F)cc1Cl (stereo not drawn) [Example 728, 2-(2-(2,6-dichloro-N-methyl-4-(trifluoromethyl)phenylsulfonamido)ethoxy)-N-((4-(1-morpholino-3-phenylpropyl)cyclohexyl)methyl)acetamide] | – | 12 | – | 9 | -9 | – |
| CN(CCOCC(=O)NC1CCC(C(c2ccccc2)N2CCOCC2)CC1)S(=O)(=O)c1ccc(Cl)cc1Cl (stereo not drawn) [Example 680, 2-(2-(2,4-dichloro-N-methylphenylsulfonamido)ethoxy)-N-(4-(morpholino(phenyl)methyl)cyclohexyl)acetamide] | – | 4 | – | 23 | 21 | – |
| CN(C)C(c1ccccc1)C1CCC(CNC(=O)COCC2CCCN2S(=O)(=O)c2c(Cl)cc(Cl)cc2Cl)CC1 (stereo not drawn) [Example 622, N-[4-(dimethylaminophenylmethyl)-cyclohexylmethyl]-2-[1-(2,4,6-trichlorobenzenesulfonyl)-pyrrolidin-2-ylmethoxy]-acetamide] | – | – | – | 68 | 106 | 96 |
| CN1CCN(C(c2ccccc2)C2CCC(NC(=O)COCCN(C)S(=O)(=O)c3c(Cl)cc(C(F)(F)F)cc3Cl)CC2)CC1 (stereo not drawn) [Example 690, 2-(2-(2,6-dichloro-N-methyl-4-(trifluoromethyl)phenylsulfonamido)ethoxy)-N-(4-((4-methylpiperazin-1-yl)(phenyl)methyl)cyclohexyl)acetamide] | – | 26 | – | 30 | 54 | – |
| COc1cc(C)c(S(=O)(=O)N2CCCC2COCC(=O)NCC2CCC(C(CCc3ccccc3)N3CCCC3)CC2)c(C)c1 (stereo not drawn) [Example 750, 2-((1-(4-methoxy-2,6-dimethylphenylsulfonyl)pyrrolidin-2-yl)methoxy)-N-((4-(3-phenyl-1-(pyrrolidin-1-yl)propyl)cyclohexyl)methyl)acetamide] | – | 52 | – | 94 | 101 | – |
| COc1cc(C)c(S(=O)(=O)N2CCCC(COCC(=O)NCC3CCC(C(CCc4ccccc4)N4CCOCC4)CC3)C2)c(C)c1 (stereo not drawn) [Example 756, 2-((1-(4-methoxy-2,6-dimethylphenylsulfonyl)piperidin-3-yl)methoxy)-N-((4-(1-morpholino-3-phenylpropyl)cyclohexyl)methyl)acetamide] | – | 5 | – | 43 | 64 | – |
